Source: patent publication US6977246B2, “Certain dinucleotides and their use as modulators of mucociliary clearance and ciliary beat frequency” (Inspire Pharmaceuticals, Inc., priority 1997, dated 2005)
Where a name gives a salt, the structure may show the parent alone. Read-outs that look alike come from different tables or passages of the source.

Legend:
[1] = biological target: P2Y6 receptor (Homo sapiens, UniProt Q15077); assay: inositol phosphate assay, P2Y6 receptor activity
Text: (§1) The pharmaceutical utility of compounds of this invention are indicated by the inositol phosphate assay for P2Y2 and other P2Y receptor activity. […] 116, 1619-27 (1995), relies on the measurement of inositol phosphate formation as a measurement of activity of compounds activating receptors linked via G-proteins to phospholipase C.

[2] = biological target: P2Y4 receptor (Homo sapiens, UniProt P51582); assay: inositol phosphate assay, P2Y4 receptor activity
Text: as §1

[3] = biological target: P2Y2 receptor (Homo sapiens, UniProt P41231); assay: inositol phosphate assay, P2Y2 receptor activity
Text: as §1

[4] = biological target: T1, P2Y1 receptor (Homo sapiens, UniProt P47900); assay: cell-based
Text: as §1

[5] = biological target: T1, P2Y1 receptor; assay: inositol phosphate assay, P2Y1 receptor activity; settings: inositol phosphate formation
Text: as §1

[6] = normal volunteers; cited from earlier work
[7] = read-out: EC50 P2Y6, inositol phosphate formation
[8] = read-out: EC50 P2Y4, inositol phosphate formation
[9] = read-out: EC50 P2Y2, inositol phosphate formation

Chain of P2Y6 receptor (Q15077 whole entry): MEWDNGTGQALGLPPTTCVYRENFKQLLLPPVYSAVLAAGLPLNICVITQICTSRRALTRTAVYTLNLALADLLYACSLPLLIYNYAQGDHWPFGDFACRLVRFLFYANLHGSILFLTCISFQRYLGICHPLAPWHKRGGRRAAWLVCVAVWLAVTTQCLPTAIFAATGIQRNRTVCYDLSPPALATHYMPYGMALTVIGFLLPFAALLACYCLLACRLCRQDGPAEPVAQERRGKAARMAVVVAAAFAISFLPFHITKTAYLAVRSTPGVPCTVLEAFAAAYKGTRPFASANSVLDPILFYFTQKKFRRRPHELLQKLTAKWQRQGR
Chain of P2Y2 receptor (P41231 whole entry): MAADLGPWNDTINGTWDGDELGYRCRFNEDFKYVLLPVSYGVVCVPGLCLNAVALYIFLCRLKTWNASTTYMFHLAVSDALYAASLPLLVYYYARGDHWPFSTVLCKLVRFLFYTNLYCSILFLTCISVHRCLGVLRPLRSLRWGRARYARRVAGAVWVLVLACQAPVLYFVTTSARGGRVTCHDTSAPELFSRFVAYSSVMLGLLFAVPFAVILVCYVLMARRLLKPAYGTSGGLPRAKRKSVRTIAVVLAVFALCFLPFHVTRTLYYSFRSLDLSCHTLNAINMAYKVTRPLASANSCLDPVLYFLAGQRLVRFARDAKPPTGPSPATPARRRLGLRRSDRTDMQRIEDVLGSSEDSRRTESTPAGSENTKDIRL
T1 sequence (P47900 whole entry): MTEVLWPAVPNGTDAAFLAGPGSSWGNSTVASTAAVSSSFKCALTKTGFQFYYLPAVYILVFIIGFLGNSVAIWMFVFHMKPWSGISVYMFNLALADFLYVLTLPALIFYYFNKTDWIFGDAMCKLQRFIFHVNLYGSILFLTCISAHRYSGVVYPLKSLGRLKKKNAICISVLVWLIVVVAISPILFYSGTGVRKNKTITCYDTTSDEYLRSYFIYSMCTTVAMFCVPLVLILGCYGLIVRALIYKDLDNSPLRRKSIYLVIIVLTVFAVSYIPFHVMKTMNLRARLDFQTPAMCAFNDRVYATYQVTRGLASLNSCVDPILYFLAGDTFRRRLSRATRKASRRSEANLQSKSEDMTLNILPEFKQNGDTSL
Chain of P2Y4 receptor (P51582 whole entry): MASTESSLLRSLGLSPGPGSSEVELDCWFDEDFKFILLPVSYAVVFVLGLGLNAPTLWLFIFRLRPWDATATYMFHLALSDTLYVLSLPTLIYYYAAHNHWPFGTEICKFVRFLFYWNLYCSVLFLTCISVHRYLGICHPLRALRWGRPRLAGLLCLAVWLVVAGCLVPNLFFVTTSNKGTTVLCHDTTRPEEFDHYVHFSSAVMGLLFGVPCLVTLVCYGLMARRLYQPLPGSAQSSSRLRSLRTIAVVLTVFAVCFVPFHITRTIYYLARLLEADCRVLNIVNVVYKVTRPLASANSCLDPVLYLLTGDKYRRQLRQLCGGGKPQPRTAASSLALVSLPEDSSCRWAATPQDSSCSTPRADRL

| Compound | EC50 [1] [nM] | EC50 [2] [nM] | EC50 [3] [nM] | further results |
| --- | --- | --- | --- | --- |
| O=c1n([C@@H]2O[C@H](COP(=O)(O)OP(=O)(O)OP(=O)(O)OP(=O)(O)OC[C@H]3O[C@@H](n4ccc5nc(-c6cccc([N+](=O)[O-])c6)cn5c4=O)[C@H](O)[C@@H]3O)[C@@H](O)[C@H]2O)ccc2nc(-c3cccc([N+](=O)[O-])c3)cn12 [Example 6a, P^1,P^4-Di(imidazo[1,2-c]pyrimidin-5(6H)-one-2-(3-nitro)-phenyl-6-β-D-ribofuranoside 5′-)tetraphosphate, tetraammonium salt] | 870 | 60 | 300 |  |
| Nc1ccn([C@@H]2O[C@H](COP(=O)(O)OP(=O)(O)OP(=O)(O)OP(=O)(O)OC[C@H]3O[C@@H](n4ccc(=O)[nH]c4=O)[C@H](O)[C@@H]3O)[C@@H](O)[C@@H]2O)c(=O)n1 [Example 10, P^1-(Cytosine β-D-arabinofuranoside 5′-)P^4-(uridine 5′-)tetraphosphate] | 1300 | 320 | 190 | Percentage response of same study positive control, P2Y4 ([2]; inositol phosphate formation): 65% |
| O=c1ccn([C@@H]2O[C@H](COP(=O)(O)OP(=O)(O)OP(=O)(O)OP(=O)(O)OC[C@H]3O[C@@H](n4cnc5c(=O)[nH]cnc54)[C@H](O)[C@@H]3O)[C@@H](O)[C@H]2O)c(=O)[nH]1 [Example 8, P^1-(Inosine 5′-)P^4-(uridine 5′-)tetraphosphate] | 800 | 150 | 110 |  |
| O=c1ccn([C@@H]2O[C@H](COP(=O)(O)OP(=O)(O)NP(=O)(O)OP(=O)(O)OC[C@H]3O[C@@H](n4ccc(=O)[nH]c4=O)[C@H](O)[C@@H]3O)[C@@H](O)[C@H]2O)c(=O)[nH]1 [Example 3, P^1,P^4-Di(uridine 5′-P^2,P^3-imidotetraphosphate)] | 2560 | 1190 | 630 | EC50 [4]: 3670 nM |
| O=c1ccn([C@@H]2O[C@H](COP(=O)(O)OP(=O)(O)OP(=O)(O)OP(=O)(O)OP(=O)(O)OP(=O)(O)OC[C@H]3O[C@@H](n4ccc(=O)[nH]c4=O)[C@H](O)[C@@H]3O)[C@@H](O)[C@H]2O)c(=O)[nH]1 [Example 14, P^1,P^6-Di(uridine-5′-)hexaphosphate] |  |  |  | EC50 [1, 7]: 3500 nM; EC50 [2, 8]: 14700 nM; EC50 [3, 9]: 10700 nM |
| P^1,P^4-Di(2′(3′)-benzoyl uridine 5′-)tetraphosphate [Example 16] |  |  |  | EC50 [1, 7]: 5330 nM; EC50 P2Y1 [5]: IA (Response < 2-fold basal); EC50 [2, 8]: 730 nM; EC50 [3, 9]: 790 nM |
| O=c1ccn([C@@H]2O[C@H](COP(=O)(O)OP(=O)(O)C(F)(F)P(=O)(O)OP(=O)(O)OC[C@H]3O[C@@H](n4ccc(=O)[nH]c4=O)[C@H](O)[C@@H]3O)[C@@H](O)[C@H]2O)c(=O)[nH]1 [Example 2, P^1,P^4-Di(uridine 5′-P^2,P^3-difluoromethylenetetraphosphate)] | > 100000 | 1000 | 5710 | Percentage response of same study positive control, P2Y4 ([2]; inositol phosphate formation): 80% |
| Cc1cn([C@H]2C[C@H](N=[N+]=[N-])[C@@H](COP(=O)(O)OP(=O)(O)OP(=O)(O)OP(=O)(O)OC[C@H]3O[C@@H](n4ccc(=O)[nH]c4=O)[C@H](O)[C@@H]3O)O2)c(=O)[nH]c1=O [Example 13, P^1-(3′-Azido-3′-deoxythymidine 5′-)-P^4-(uridine 5′-)tetraphosphate] | 540 | 130 | 200 |  |
| O=c1ccn([C@@H]2O[C@H](COP(=O)(O)OP(=O)(O)OP(=O)(O)OP(=O)(O)OP(=O)(O)OC[C@H]3O[C@@H](n4ccc(=O)[nH]c4=O)[C@H](O)[C@@H]3O)[C@@H](O)[C@H]2O)c(=O)[nH]1 [Example 5, P^1,P^5-Di(uridine 5′-pentaphosphate)] | 92600 | 2870 | 3800 | Percentage response of same study positive control, P2Y1 [5]: 55%; EC50 [4]: 31200 nM; Percentage response of same study positive control, P2Y2 ([3]; inositol phosphate formation): 80% |
| 2′(3′)-Benzoyl-P^1,P^4-di(uridine 5′-)tetraphosphate [Example 15] |  |  |  | EC50 [1, 7]: 9710 nM; EC50 P2Y1 [5]: IA (Response < 2-fold basal); EC50 [2, 8]: 3720 nM; EC50 [3, 9]: 640 nM |
| Cc1cn([C@H]2C[C@H](O)[C@@H](COP(=O)(O)OP(=O)(O)OP(=O)(O)OP(=O)(O)OC[C@H]3O[C@@H](n4ccc(=O)[nH]c4=O)[C@H](O)[C@@H]3O)O2)c(=O)[nH]c1=O [Example 7, P^1-(Thymidine-5′-)P^4-(uridine-5′-)tetraphosphate] | 880 | 200 | 110 |  |
| O=c1[nH]c(=S)ccn1[C@@H]1O[C@H](COP(=O)(O)OP(=O)(O)OP(=O)(O)OP(=O)(O)OC[C@H]2O[C@@H](n3ccc(=S)[nH]c3=O)[C@H](O)[C@@H]2O)[C@@H](O)[C@H]1O [Example 4, P^1,P^4-Di(4-thiouridine 5′-tetraphosphate)] | 50 |  | 20 | Percentage response of same study positive control, P2Y6 ([1]; inositol phosphate formation): 20% |
| O=c1n([C@@H]2O[C@H](COP(=O)(O)OP(=O)(O)OP(=O)(O)OP(=O)(O)OC[C@H]3O[C@@H](n4ccc5nccn5c4=O)[C@H](O)[C@@H]3O)[C@@H](O)[C@H]2O)ccc2nccn12 [Example 6, P^1,P^4-Di(3,N^4-ethenocytidine 5′-)tetraphosphate] |  | 19800 | 460 | EC50 P2Y6 ([1]; inositol phosphate formation): IA (Response < 2-fold basal); EC50 [4]: > 100000 nM; Percentage response of same study positive control, P2Y4 ([2]; inositol phosphate formation): 75% |
| O=c1ccn([C@@H]2O[C@H](COP(=O)(O)OP(=O)(O)CP(=O)(O)OP(=O)(O)OC[C@H]3O[C@@H](n4ccc(=O)[nH]c4=O)[C@H](O)[C@@H]3O)[C@@H](O)[C@H]2O)c(=O)[nH]1 [Example 1, P^1,P^4-Di(uridine 5′-)P^2,P^3-methylenetetraphosphate] |  | 11100 | > 100000 | EC50 P2Y6 ([1]; inositol phosphate formation): IA (Response < 2-fold basal); Percentage response of same study positive control, P2Y4 ([2]; inositol phosphate formation): 60% |
| O=c1ccn([C@@H]2O[C@H](COP(=O)(O)OP(=O)(O)OP(=O)(O)OP(=O)(O)OC[C@H]3O[C@@H](n4ccc(=S)[nH]c4=O)[C@H](O)[C@@H]3O)[C@@H](O)[C@H]2O)c(=O)[nH]1 [Example 9, P^1-(4-Thiouridine 5′-)P^4-(uridine 5′-)tetraphosphate] | 1790 | 4160 | 370 | EC50 [4]: > 100000 nM |
| O=c1ccn([C@@H]2O[C@H](COP(=O)(O)OP(=O)(O)OP(=O)(O)OP(=O)(O)OC[C@H]3O[C@@H](n4cnc5c(=O)[nH]c(=O)[nH]c54)[C@H](O)[C@@H]3O)[C@@H](O)[C@H]2O)c(=O)[nH]1 [Example 11, P^1-(Uridine 5′-)-P^4-(xanthosine 5′-)tetraphosphate] | 3390 | 380 | 130 | Percentage response of same study positive control, P2Y4 ([2]; inositol phosphate formation): 75% |
| O=c1ccn([C@@H]2O[C@H](COP(=O)(O)OP(=O)(O)OP(=O)(O)OP(=O)(O)OC[C@H]3O[C@@H](n4ccc(=O)[nH]c4=O)C[C@@H]3O)[C@@H](O)[C@H]2O)c(=O)[nH]1 [Example 12, P^1-(2′-deoxyuridine 5′-)-P^4-(uridine 5′-)tetraphosphate] | 920 | 390 | 100 |  |
| O=c1ccn([C@@H]2O[C@H](COP(=O)(O)OP(=O)(O)OP(=O)(O)O)[C@@H](O)[C@H]2O)c(=O)[nH]1 [UTP, uridine 5′-triphosphate] |  |  |  | improvement in lung mucociliary clearance [6]: 2.5 fold; side-effects [6]: without any significant side-effects |
